According to PubChem BioAssay AID493102 (Broad Institute, 2011):

Tested on: SK-MEL-5 TRPM1-promoter luciferase reporter, 24 h
Assay: reducers of TRPM1 reporter luminescence, concentration series – cell-based, SK-MEL-5, cherry-picked, set 4, MITF inhibitor project, dose response (AID 493102);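 note: actives lower the luciferase signal so the potency reflects inhibition of reporter expression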

Structure (SMILES) | AC50 [µM]
COc1cc2c(cc1OC)C(c1ccccc1)N(C(=O)CCl)CC2 (configuration not stated) | 5.36
CN1C/C(=C/c2cccnc2)C(=O)/C(=C/c2cccnc2)C1 | 5.31
COCCn1c(C)cc(C(=O)CSc2nnc(C)s2)c1C | 3.04
NC(=O)C1CCN(C2=C(NS(=O)(=O)c3ccc(Br)cc3)C(=O)c3ccccc3C2=O)CC1 | 11.9
CCN1CCN(/C=N/c2nc3c(s2)CCCC3)CC1 | 6.42
Cc1cc(C)cc(N2C(=O)NC(=O)/C(=C\c3cccn3-c3ccccc3)C2=O)c1 | 13.8
CN(C)c1nc(-c2ccccn2)nnc1-c1ccccc1 | 6.17
Cc1ccc(C(=O)N/C(=C\c2ccc(-c3ccccc3[N+](=O)[O-])o2)C(=O)NCCN(C)C)cc1 | 4.87
COc1ccc(S(=O)(=O)N2CCCCC2)cc1NC(=O)c1ccc([N+](=O)[O-])o1 | 9.14
CCOc1ccc(-c2noc(CCC(=O)O)n2)cc1 | 2.61
O=C(N/N=C/c1ccc([N+](=O)[O-])o1)c1sc2ccccc2c1Cl | 4.61
CC1(C)Cc2c(sc(NC(=O)c3ccc4ncsc4c3)c2C(N)=O)C(C)(C)N1 | 10.1
Nc1ncnc(Sc2ncccn2)c1[N+](=O)[O-] | 11.7
O=C1/C(=C/c2ccccc2[N+](=O)[O-])COc2ccccc21 | 9.8
O=C(Cn1ncc(Cl)c(Cl)c1=O)N1CCN(Cc2ccccc2)CC1 | 10.9
CC(=O)Nc1sc(C)c(C)c1C(=O)OCC(=O)N(CC(C)C)c1c(N)n(Cc2ccccc2)c(=O)[nH]c1=O | 5.29
CCN(Cc1ccccc1)c1ccc(/C=N/N=C(N)N)cc1 | 6.37
CCc1ccc(N2C(=O)NC(=O)/C(=C\C=C\c3ccco3)C2=O)cc1 | 7.53
Cc1c(C#N)c(NC(=O)CCl)n(Cc2ccccc2)c1C | 11.2
Cc1ccc(Oc2c(C(N)=O)cc([N+](=O)[O-])cc2[N+](=O)[O-])cc1 | 3.68
Cc1cc(C)n(-c2ccc(C(=O)Nc3ccc(C)c(S(=O)(=O)N4CCOCC4)c3)cc2)n1 | 4.54
Cc1cccc(NC(=O)CNC(=O)Cn2ncc(Cl)c(Cl)c2=O)c1C | 13.4
CN(C)S(=O)(=O)c1cccc(NC(=O)CSc2nc3c(cc2C#N)C(=O)CC(C)(C)C3)c1 | 9.02
O=C1C(Cl)=C(N2CCN(c3ccccc3[N+](=O)[O-])CC2)C(=O)c2ccccc21 | 3.59
COC1=C(c2ccccc2)C(=O)c2ccccc2C1=O | 9.05
Cc1ccc2c(C(=O)CCl)c(C)[nH]c2c1 | 8.17

Structure (SMILES) | AC50 [µM]
N/C(=N\OC(=O)c1ccccc1Cl)c1ccccn1 | 8.87
Cc1ccc(C(=O)N/C(=C\c2ccc(-c3ccc(Br)cc3)o2)C(=O)NCCCN(C)C)cc1 | 6.84
O=C(N/N=C\c1ccc([N+](=O)[O-])o1)C1COc2ccccc2O1 (configuration not stated) | 7.21
CC1CCC(C(C)C)C(OC(=O)C[n+]2cc(-c3ccc(Cl)cc3)n3c2CCCCC3)C1 (configuration not stated) | 6.97
COc1cccc(/C=N/Nc2ncnc3c2ncn3Cc2ccccc2)c1O | 4.6
Cc1ccc(NC(=O)C2CCN(S(=O)(=O)c3c(C)noc3/C=C/c3ccco3)CC2)nc1 | 5.56
O=C(N/N=C/c1ccccc1Cl)c1n[nH]c2c1CCCC2 | 7.97
O=C(N/N=C/c1ccc([N+](=O)[O-])s1)c1ccccc1 | 2.29
CS(=O)(=O)c1ccc(S(=O)CC(=O)OCc2ccccc2)c([N+](=O)[O-])c1 (configuration not stated) | 5.46
Cc1ccc(NC(=O)/C=C/c2ccc([N+](=O)[O-])s2)c(C)c1 | 4.64
Cc1ccccc1Cn1c(=N)n(CC(=O)c2ccc([N+](=O)[O-])cc2)c2ccccc21 | 5.63
Oc1cc(NCCN2CCOCC2)cc2cccnc12 | 25.9
O=C1NC(=O)N(c2ccccc2)C(=O)/C1=C/C=C/c1ccco1 | 8.29
O=C(/C=C/c1ccc(Cl)c([N+](=O)[O-])c1)c1ccc(O)cc1 | 17.4
Cc1cc(NC(=O)c2ccc([N+](=O)[O-])o2)ccc1NC(=O)c1ccco1 | 7.8
c1ccc2cc3c(NCCN4CCOCC4)ccnc3cc2c1 | 2.91
O=C(CCCc1ccccc1)Nc1cccc(C(=O)O)c1 | 4.42
Cc1cc(-n2c(SCC(=O)NCCC3=CCCCC3)nc3n[nH]c(C)c3c2=N)ccc1Cl | 17.1
O=C(N/N=C/c1ccc([N+](=O)[O-])o1)c1cc2ccccc2o1 | 5.99
CCCCNC(=O)Nc1ccc(C2SCCS2)cc1 | 35.3
Clc1cccc(-c2nc(-c3ccccn3)no2)c1 | 5.92
Cc1cc(C)c[n+](C2=C([O-])c3ccccc3C(=O)/C2=N\S(=O)(=O)c2cccs2)c1 | 2.95
N=c1n(CC(=O)c2ccc([N+](=O)[O-])cc2)c2ccccc2n1Cc1ccccc1Cl | 4.03
CN(C)c1ccc(-n2cccc2/C=C/[N+](=O)[O-])cc1 | 10.2
Cn1nnnc1Sc1ncnc2scc(-c3ccc(C#N)cc3)c12 | 4.98
COc1ccc(Br)cc1/C=C/C(=O)c1ccc(NC(C)=O)cc1 | 4.63

Structure (SMILES) | AC50 [µM]
O=C1/C(=N\S(=O)(=O)c2cccs2)C([n+]2ccccc2)=C([O-])c2ccccc21 | 1.07
C=C1C(=O)O[C@@H]2[C@H]1[C@@H](OC(=O)/C(C)=C/C)C/C(C)=C\C(=O)/C=C(\C)[C@@H]2O | 7.07
COc1ccc2oc(C(=O)Nc3ccc(S(=O)(=O)N(C)C4CCN(C)CC4)cc3)c(C)c2c1 | 13
COc1cc(/C=N/NC(N)=O)c(Br)cc1OCC(=O)Nc1ccccc1C | 17.8
O=C(c1ccc([N+](=O)[O-])s1)N1CCCc2ccccc21 | 11.2
CC1CCC(C(C)C)C(OC(=O)Cn2c(-c3ccc(Cl)cc3)[n+](C)c3ccccc32)C1 (configuration not stated) | 6.29
CC(C)(C)c1ccc(-c2noc(CCC(=O)NCc3ccco3)n2)cc1 | 0.122
CN1CCC(N(C)C(=O)/C=C/c2cn(-c3ccccc3)nc2-c2cccs2)CC1 | 9.82
N#CC(C#N)=C1C=CC=CN1/C(=C\c1ccco1)C(=O)c1ccc(Br)cc1 | 5.59
CC(C)(C)c1ccc(C(=O)Nc2ccc(CC(=O)O)cc2)o1 | 0.329
C=C1CCC[C@]2(C)C[C@H]3OC(=O)C(CN4CCCCC4CO)[C@H]3CC12 (some centres not stated) | 11
CCOc1cc(/C=C2/NC(=S)NC2=O)ccc1OCc1ccc([N+](=O)[O-])cc1 | 8.19
O=C(N/N=C/c1ccc([N+](=O)[O-])s1)c1cccc(Br)c1 | 4.83
O=C(N/N=C\c1cc(Br)ccc1O)c1ccc(S(=O)(=O)N2CCCCC2)cc1 | 1.78
Cc1ccc(NC(=O)Cn2ncc(Cl)c(Cl)c2=O)cc1S(=O)(=O)N1CCCCC1 | 13.7
CS(=O)(=O)c1ccc(C(=O)OCC(=O)NCc2cccs2)cc1[N+](=O)[O-] | 11.7
Cc1ccccc1NC(=O)Cc1nc(COC(=O)c2ccc(S(C)(=O)=O)c([N+](=O)[O-])c2)cs1 | 12.8
O=C(N/N=C/c1ccc(O)c2ncccc12)c1cccc(Br)c1 | 7.28
CN(C)CCCNC(=O)/C(=C\c1ccc(-c2ccc(Br)cc2)o1)NC(=O)c1ccccc1 | 7.51
Cc1cc(C)c2c(N)c(C(=O)Nc3ncc(C)s3)sc2n1 | 1.09
C/C(=N\NC(=O)C(c1ccccc1)c1ccccc1)c1ccccn1 | 5.96
Cc1ccc(C(=O)c2no[n+]([O-])c2C(=O)c2ccc(C)cc2)cc1 | 16.7
CCOC(=O)/C=c1/s/c(=C/c2ccc3cc(OC)ccc3c2)c(=O)n1CC(=O)NCC1CCCO1 (configuration not stated) | 6.79
O=C(/C=C/c1cccc([N+](=O)[O-])c1)n1cnc2ccccc21 | 4.39
CN(C)S(=O)(=O)c1ccc(-c2csc(N/N=C/c3ccc(O)cc3)n2)cc1 | 4.6
